In PubChem BioAssay (NCI):
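Growth conditions: 96-well plates. Treatment: test compound, 48 hours, 5 concentrations. Analysis: linear interpolation between bracketing concentrations; unreached endpoints set to highest concentration. TGI: total growth inhibition.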

Tests used:
Assay in all cases: DTP human tumour cell line panel, 48 h
KM12 colon = test system: KM12 colon
OVCAR-4 ovarian = test system: OVCAR-4 ovarian
TK-10 renal = test system: TK-10 renal
MALME-3M melanoma = test system: MALME-3M melanoma
OVCAR-3 ovarian = test system: OVCAR-3 ovarian
EKVX NSCLC = test system: EKVX NSCLC
K-562 leukemia = test system: K-562 leukemia
ACHN renal = test system: ACHN renal
SN12C renal = test system: SN12C renal
KM20L2 colon = test system: KM20L2 colon
786-0 renal = test system: 786-0 renal
HCC-2998 colon = test system: HCC-2998 colon
SK-MEL-28 melanoma = test system: SK-MEL-28 melanoma
MOLT-4 leukemia = test system: MOLT-4 leukemia
SF-295 CNS = test system: SF-295 CNS
SNB-75 CNS = test system: SNB-75 CNS
CAKI-1 renal = test system: CAKI-1 renal
LXFL 529 NSCLC = test system: LXFL 529 NSCLC
SNB-19 CNS = test system: SNB-19 CNS
LOX IMVI melanoma = test system: LOX IMVI melanoma
UO-31 renal = test system: UO-31 renal
IGROV1 ovarian = test system: IGROV1 ovarian
OVCAR-5 ovarian = test system: OVCAR-5 ovarian
HL-60(TB) leukemia = test system: HL-60(TB) leukemia
HOP-18 NSCLC = test system: HOP-18 NSCLC
SR leukemia = test system: SR leukemia
M14 melanoma = test system: M14 melanoma
NCI-H226 lung = test system: NCI-H226 lung
A549 NSCLC = test system: A549 NSCLC
CCRF-CEM leukemia = test system: CCRF-CEM leukemia
HOP-62 NSCLC = test system: HOP-62 NSCLC
NCI-H460 lung = test system: NCI-H460 lung
COLO 205 colon = test system: COLO 205 colon
SK-MEL-5 melanoma = test system: SK-MEL-5 melanoma
OVCAR-8 ovarian = test system: OVCAR-8 ovarian
DMS 114 small cell lung = test system: DMS 114 small cell lung
RXF 393 renal = test system: RXF 393 renal
U251 CNS = test system: U251 CNS
SF-539 CNS = test system: SF-539 CNS
XF 498 CNS = test system: XF 498 CNS
HOP-92 NSCLC = test system: HOP-92 NSCLC
HCT-15 colon = test system: HCT-15 colon
SW-620 colon = test system: SW-620 colon
UACC-62 melanoma = test system: UACC-62 melanoma
NCI-H522 lung = test system: NCI-H522 lung
HT29 colon = test system: HT29 colon
RXF-631 renal = test system: RXF-631 renal
SK-MEL-2 melanoma = test system: SK-MEL-2 melanoma
SNB-78 CNS = test system: SNB-78 CNS
NCI-H23 lung = test system: NCI-H23 lung
HCT-116 colon = test system: HCT-116 colon
SK-OV-3 ovarian = test system: SK-OV-3 ovarian
M19-MEL melanoma = test system: M19-MEL melanoma
UACC-257 melanoma = test system: UACC-257 melanoma
DMS 273 small cell lung = test system: DMS 273 small cell lung
RPMI-8226 leukemia = test system: RPMI-8226 leukemia
A498 renal = test system: A498 renal
SF-268 CNS = test system: SF-268 CNS
DLD-1 colon = test system: DLD-1 colon

COc1cccc(C(=O)N2CCc3ccccc32)c1OC
TGI (KM12 colon): > 100 µM | TGI (OVCAR-4 ovarian): > 100 µM | TGI (TK-10 renal): > 100 µM | TGI (MALME-3M melanoma): > 100 µM | TGI (OVCAR-3 ovarian): > 100 µM | TGI (EKVX NSCLC): > 100 µM | TGI (K-562 leukemia): > 100 µM | TGI (ACHN renal): > 100 µM | TGI (SN12C renal): > 100 µM | TGI (KM20L2 colon): > 100 µM | TGI (786-0 renal): > 100 µM | TGI (HCC-2998 colon): > 100 µM | TGI (SK-MEL-28 melanoma): > 100 µM | TGI (MOLT-4 leukemia): 78.7 µM | TGI (SF-295 CNS): > 100 µM | TGI (SNB-75 CNS): > 100 µM | TGI (CAKI-1 renal): > 100 µM | TGI (LXFL 529 NSCLC): > 100 µM | TGI (SNB-19 CNS): > 100 µM | TGI (LOX IMVI melanoma): > 100 µM | TGI (UO-31 renal): > 100 µM | TGI (IGROV1 ovarian): > 100 µM | TGI (OVCAR-5 ovarian): > 100 µM | TGI (HL-60(TB) leukemia): 91.1 µM | TGI (HOP-18 NSCLC): > 100 µM | TGI (SR leukemia): > 100 µM | TGI (M14 melanoma): > 100 µM | TGI (NCI-H226 lung): > 100 µM | TGI (A549 NSCLC): > 100 µM | TGI (CCRF-CEM leukemia): > 100 µM | TGI (HOP-62 NSCLC): > 100 µM | TGI (NCI-H460 lung): > 100 µM | TGI (COLO 205 colon): > 100 µM | TGI (SK-MEL-5 melanoma): > 100 µM | TGI (OVCAR-8 ovarian): > 100 µM | TGI (DMS 114 small cell lung): > 100 µM | TGI (RXF 393 renal): > 100 µM | TGI (U251 CNS): > 100 µM | TGI (SF-539 CNS): > 100 µM | TGI (XF 498 CNS): > 100 µM | TGI (HOP-92 NSCLC): > 100 µM | TGI (HCT-15 colon): 61.9 µM | TGI (SW-620 colon): > 100 µM | TGI (UACC-62 melanoma): > 100 µM | TGI (NCI-H522 lung): > 100 µM | TGI (HT29 colon): > 100 µM | TGI (RXF-631 renal): > 100 µM | TGI (SK-MEL-2 melanoma): > 100 µM | TGI (SNB-78 CNS): > 100 µM | TGI (NCI-H23 lung): > 100 µM | TGI (HCT-116 colon): > 100 µM | TGI (SK-OV-3 ovarian): > 100 µM | TGI (M19-MEL melanoma): > 100 µM | TGI (UACC-257 melanoma): > 100 µM | TGI (DMS 273 small cell lung): > 100 µM | TGI (RPMI-8226 leukemia): > 100 µM

COc1cc2noc(-c3ccccc3)c2cc1OC
TGI (KM12 colon): > 100 µM | TGI (OVCAR-4 ovarian): > 100 µM | TGI (TK-10 renal): > 100 µM | TGI (MALME-3M melanoma): > 100 µM | TGI (K-562 leukemia): > 100 µM | TGI (ACHN renal): > 100 µM | TGI (SN12C renal): > 100 µM | TGI (KM20L2 colon): > 100 µM | TGI (786-0 renal): > 100 µM | TGI (HCC-2998 colon): > 100 µM | TGI (A498 renal): 83.1 µM | TGI (MOLT-4 leukemia): > 100 µM | TGI (SF-295 CNS): 38.6 µM | TGI (SNB-75 CNS): 35.4 µM | TGI (CAKI-1 renal): 92.2 µM | TGI (LXFL 529 NSCLC): > 100 µM | TGI (SNB-19 CNS): > 100 µM | TGI (LOX IMVI melanoma): > 100 µM | TGI (UO-31 renal): > 100 µM | TGI (IGROV1 ovarian): > 100 µM | TGI (OVCAR-5 ovarian): 94 µM | TGI (HL-60(TB) leukemia): > 100 µM | TGI (HOP-18 NSCLC): > 100 µM | TGI (SR leukemia): > 100 µM | TGI (M14 melanoma): > 100 µM | TGI (NCI-H226 lung): > 100 µM | TGI (A549 NSCLC): > 100 µM | TGI (CCRF-CEM leukemia): > 100 µM | TGI (HOP-62 NSCLC): > 100 µM | TGI (NCI-H460 lung): > 100 µM | TGI (COLO 205 colon): > 100 µM | TGI (SK-MEL-5 melanoma): > 100 µM | TGI (SF-268 CNS): > 100 µM | TGI (OVCAR-8 ovarian): > 100 µM | TGI (DMS 114 small cell lung): > 100 µM | TGI (RXF 393 renal): 73.8 µM | TGI (U251 CNS): > 100 µM | TGI (SF-539 CNS): > 100 µM | TGI (HOP-92 NSCLC): > 100 µM | TGI (HCT-15 colon): > 100 µM | TGI (SW-620 colon): > 100 µM | TGI (UACC-62 melanoma): > 100 µM | TGI (NCI-H522 lung): > 100 µM | TGI (HT29 colon): > 100 µM | TGI (RXF-631 renal): > 100 µM | TGI (SK-MEL-2 melanoma): > 100 µM | TGI (SNB-78 CNS): > 100 µM | TGI (DLD-1 colon): > 100 µM | TGI (HCT-116 colon): > 100 µM | TGI (SK-OV-3 ovarian): > 100 µM | TGI (M19-MEL melanoma): > 100 µM | TGI (UACC-257 melanoma): > 100 µM | TGI (DMS 273 small cell lung): > 100 µM | TGI (RPMI-8226 leukemia): 56.7 µM
